Assay results as given in US10119168B2, “Methods for the treatment of kidney fibrosis” (priority 2014, dated 2018).

Tested on: mouse kidney
Experiment: RNA-seq of kidney gene expression over time in FA nephropathy progression (Table 1)
Format: in vivo
Description: Identification of Candidate Genes for Biomarkers of Kidney Fibrosis Through RNA-Seq. […] To select genes that are indicative of fibrosis candidates were considered from this later group that had robust upregulation (>5-fold with >100 read counts at peak) over time as fibrosis progresses. Another important criteria was the location of the protein product of the gene, either in extracellular matrix or transmembrane, to increase the chance of detecting it in the urine and use it as a biomarker(11).
(§1) RNA samples (n=3 mice/time point) were sequenced at the Bioplymers Facility at the Harvard Medical School. Libraries were prepared from 10 ng total RNA per sample using the IntegenX Apollo 324 system and NuGEN SPIA reagents. Libraries were multiplexed in groups of three per lane of a flowcell and 50 cycle, paired-end sequencing was performed on an Illumina HiSeq2000 instrument. Illumina sequence quality was surveyed with FastQC (available on the world wide web at bioinformatics.babraham.ac.uk/projects/fastqc/) to ensure suitability of library generation and sequencing for further analysis. Adapters and lower quality bases were trimmed with Cutadapt (available on the world wide web at code.google.com/p/cutadapt/), using a Phred quality cutoff of 20, and reassessed with FastQC. Trimmed reads were aligned to the Ensembl NCBIM37 Mus musculus genome build with TopHat2. Aligned reads were summarized at the gene level against the Illumina iGenomes (available on the world wide web at tophat.cbcb.umd.edu/igenomes.html) NCBIM37 Mus musculus gene annotations using HTSeq (available on the world wide web at huber.embl.de/users/anders/HTSeq/doc/overview.html). […] The full dataset is available in the NCBI GEO database with the accession number GSE65267. Raw data is accessible on the world wide web at ncbi.nlm.nih.gov/geo/query/acc.cgi?acc=GSE65267.
Mice were sacrificed at 1, 2, 3, 7 and 14 days following administration. […] All mice were sacrificed at 14 days.
as §1, with “The quantity and quality of mRNA” for “RNA samples (n=3 mice/time point)”, “assayed on an Agilent 2200 TapeStation instrument and by SYBR qPCR assay.” for “sequenced at the Bioplymers Facility at the Harvard Medical School.”, “(https://code.google.com/p/cutadapt/),” for “(available on the world wide web at code.google.com/p/cutadapt/),”

In the case of `Nc1nc2ncc(CNc3ccc(C(=O)N[C@@H](CCC(=O)O)C(=O)O)cc3)nc2c(=O)[nH]1` [FA, folic acid], the “7SK RNA mean fold change from normal” value (Day 1) is reported as 0.04 fold, the “2310042D19Rik mean fold change from normal” value (Day 1) is reported as 0.09 fold and the “4930533I22Rik mean fold change from normal” value (Day 1) is reported as 0.11 fold. For the same compound, the “4933417A18Rik mean fold change from normal” value (Day 1) was 0.04 fold, the “8430408G22Rik mean fold change from normal” value (Day 1) was 0.09 fold and the “9030619P08Rik mean fold change from normal” value (Day 1) was 0.01 fold. The “Slc2a5 mean fold change from normal” value (Day 1) was 0.07 fold, the “Slc4a1 mean fold change from normal” value (Day 1) was 0.11 fold and the “Slc5a4a mean fold change from normal” value (Day 1) was 0.02 fold. For the same compound, the “Slc5a12 mean fold change from normal” value (Day 1) was 0.06 fold, the “Slc6a12 mean fold change from normal” value (Day 1) was 0.02 fold and the “Slc7a13 mean fold change from normal” value (Day 1) was 0.02 fold. The “Slc28a1 mean fold change from normal” value (Day 1) was 0.02 fold, the “Slc34a1 mean fold change from normal” value (Day 1) was 0.05 fold and the “Slc34a2 mean fold change from normal” value (Day 1) was 11.81 fold. For the same compound, the “Slc34a3 mean fold change from normal” value (Day 1) was 0.05 fold, the “Slc46a3 mean fold change from normal” value (Day 1) was 0.11 fold and the “Slco1a1 mean fold change from normal” value (Day 1) was 0.18 fold. The “Smoc2 mean fold change from normal” value (Day 1) was 0.06 fold, the “Smpdl3b mean fold change from normal” value (Day 1) was 222.02 fold and the “Snx31 mean fold change from normal” value (Day 1) was 0.06 fold. For the same compound, the “Socs1 mean fold change from normal” value (Day 1) was 77.54 fold, the “Sox4 mean fold change from normal” value (Day 1) was 12.86 fold and the “Sox9 mean fold change from normal” value (Day 1) was 24.10 fold. The “Spaca7 mean fold change from normal” value (Day 1) was 27.30 fold, the “Spink6 mean fold change from normal” value (Day 1) was 46.74 fold and the “Spp1 mean fold change from normal” value (Day 1) was 113.22 fold. The “Spred3 mean fold change from normal” value (Day 1) was 6.01 fold, the “Spsb1 mean fold change from normal” value (Day 1) was 11.68 fold and the “Spt1c3 mean fold change from normal” value (Day 1) was 0.07 fold. The “St8sia2 mean fold change from normal” value (Day 1) was 3.07 fold, the “Stil mean fold change from normal” value (Day 1) was 13.84 fold and the “Stk32a mean fold change from normal” value (Day 1) was 10.38 fold. For the same compound, the “Stra6 mean fold change from normal” value (Day 1) was 1.19 fold, the “Susd2 mean fold change from normal” value (Day 1) was 0.18 fold and the “Sycn mean fold change from normal” value (Day 1) was 0.07 fold. For the same compound, the “Synpr mean fold change from normal” value (Day 1) was 0.23 fold, the “Sytl2 mean fold change from normal” value (Day 1) was 3.75 fold and the “Tagln2 mean fold change from normal” value (Day 1) was 8.92 fold. For the same compound, the “Tbx10 mean fold change from normal” value (Day 1) was 0.06 fold, the “Timd2 mean fold change from normal” value (Day 1) was 7.27 fold and the “Timp1 mean fold change from normal” value (Day 1) was 175.24 fold. The “Tlr2 mean fold change from normal” value (Day 1) was 6.43 fold, the “Tmem25 mean fold change from normal” value (Day 1) was 0.11 fold and the “Tmem26 mean fold change from normal” value (Day 1) was 0.10 fold. For the same compound, the “Tmem207 mean fold change from normal” value (Day 1) was 0.01 fold, the “Tmsb10 mean fold change from normal” value (Day 1) was 19.04 fold and the “Tnc mean fold change from normal” value (Day 1) was 13.27 fold. The “Tnfaip3 mean fold change from normal” value (Day 1) was 1.97 fold, the “Tnfrsf23 mean fold change from normal” value (Day 1) was 18.16 fold and the “Top2a mean fold change from normal” value (Day 1) was 5.38 fold. For the same compound, the “Tpx2 mean fold change from normal” value (Day 1) was 3.87 fold, the “Tril mean fold change from normal” value (Day 1) was 0.07 fold and the “Tsc22d1 mean fold change from normal” value (Day 1) was 8.11 fold. The “Ttc36 mean fold change from normal” value (Day 1) was 0.04 fold, the “Ttr mean fold change from normal” value (Day 1) was 0.05 fold and the “Tyrobp mean fold change from normal” value (Day 1) was 1.26 fold. For the same compound, the “Ugt3a1 mean fold change from normal” value (Day 1) was 0.18 fold, the “Uhrf1 mean fold change from normal” value (Day 1) was 16.90 fold and the “Upp2 mean fold change from normal” value (Day 1) was 0.25 fold. For the same compound, the “Vcam1 mean fold change from normal” value (Day 1) was 13.66 fold, the “Vill mean fold change from normal” value (Day 1) was 0.09 fold and the “Vmn1r18 mean fold change from normal” value (Day 1) was 0.02 fold. For the same compound, the “Vmn1r19 mean fold change from normal” value (Day 1) was 0.03 fold, the “Vmn1r20 mean fold change from normal” value (Day 1) was 0.02 fold and the “Vmn1r-ps11 mean fold change from normal” value (Day 1) was 0.02 fold. The “Vstm2a mean fold change from normal” value (Day 1) was 0.04 fold, the “Vtcn1 mean fold change from normal” value (Day 1) was 64.93 fold and the “Vwce mean fold change from normal” value (Day 1) was 0.06 fold. For the same compound, the “Wfdc15b mean fold change from normal” value (Day 1) was 0.02 fold, the “Ybx2 mean fold change from normal” value (Day 1) was 0.08 fold and the “7SK RNA mean fold change from normal” value (Day 2) was 0.04 fold. The “2310042D19Rik mean fold change from normal” value (Day 2) was 0.08 fold, the “4930533I22Rik mean fold change from normal” value (Day 2) was 0.09 fold and the “4933417A18Rik mean fold change from normal” value (Day 2) was 0.07 fold. The “8430408G22Rik mean fold change from normal” value (Day 2) was 0.23 fold, the “9030619P08Rik mean fold change from normal” value (Day 2) was 0.05 fold and the “Slc2a5 mean fold change from normal” value (Day 2) was 0.09 fold. For the same compound, the “Slc4a1 mean fold change from normal” value (Day 2) was 0.09 fold, the “Slc5a4a mean fold change from normal” value (Day 2) was 0.37 fold and the “Slc5a12 mean fold change from normal” value (Day 2) was 0.34 fold. For the same compound, the “Slc6a12 mean fold change from normal” value (Day 2) was 0.13 fold, the “Slc7a13 mean fold change from normal” value (Day 2) was 0.02 fold and the “Slc28a1 mean fold change from normal” value (Day 2) was 0.19 fold. For the same compound, the “Slc34a1 mean fold change from normal” value (Day 2) was 0.11 fold, the “Slc34a2 mean fold change from normal” value (Day 2) was 16.20 fold and the “Slc34a3 mean fold change from normal” value (Day 2) was 0.05 fold. For the same compound, the “Slc46a3 mean fold change from normal” value (Day 2) was 0.36 fold.
